Results published in patent US20240299299A1, “COMPOSITIONS AND METHODS FOR INCREASING THE EFFICACY OF IMMUNOTHERAPIES AND VACCINES” (The Regents of the University of Michigan, priority 2021, published 2024).

What was measured:
[1] = tested on: CT26 colon carcinoma cells; experiment: CT26 tumor model, oral prodrug #717 plus α-PD-1; type: in vivo, BALB/c mice; details: 2 mg per dose every other day starting day 8
Protocol: FIG. 10: BALB/c mice were s.c. inoculated with 1.5×10^5 CT26 colon carcinoma cells. The prodrug #717 (2 mg per dose) were orally administrated every other day starting day 8. 100 μg α-PD-1 was injected i.p. on days 11 and 16. Shown is the average tumor growth. Data represent the mean±s.e.m. (n=5).

OT-I CD8+ T cells [2] = experiment: Tcf1+CD8+ differentiation of OT-I T cells with metabolites; type: cell-based, mice; details: day 6
Protocol: FIG. 3: a) OT-I CD8+ T cells were cultured with different metabolites in vitro as indicated, b,c) shown are the frequency of the Tcf1^+CD8+ T cells and the representative flow cytometry plots on day 6. Data represent the mean±s.e.m. (n=5).
(§1) Splenocytes from OT-I mice were obtained aseptically. The cells were cultured in 96-well plates (1×10^5 cells per well). For Tcm differentiation study, cells were activated with SIINFEKL peptide (4×10^−9M) in the presence of various metabolites (arginine: 3 mM; 3-methylhistidine: 3 mM; N-acetylneuraminate: 100 μM; disodium sebacate: 100 μM; DHB: 100 μM; pantothenate: 100 μM; γ-aminobutyric acid: 100 μM; glycerol: 100 μM; AICAR: 100 μM, sodium ferulate: 100 μM) for 3 days. Then cells were washed three times with T-cell medium and further cultured with IL-2 (10 ng ml^−1; PeproTech) in the presence of metabolites for 5 days. The cells were then washed twice and re-activated with SIINFEKL peptide (10 μM) for 2 h. The suspension cells were collected, blocked with CD16/32 antibody and stained with the fixable viability dye eFluor 450, FITC-CD44 rat anti-human/mouse and PE-CD62L monoclonal antibody. To test if the central memory CD8+ T cells differentiation is dependent on dendritic cells, CD8 T cells isolated from the spleen in OT-I mice were incubated in the 96-well plate, which was precoated with anti-hamster IgG antibody. […] (1 μg mL^−1) and IL-2 (100 U mL^−1) were added into each well in the presence of 3-methylhistidine (3 mM), DHB (100 μM), or sodium ferulate (100 μM) for 2 days. Then cells were washed for three times to remove α-CD3/α-CD28 antibodies and further incubated with metabolites and IL-2 (10 ng ml^−1) for 5 days. Thereafter, cells were collected for central memory CD8^+ T cells analysis. For CD8^+ T cells survival study, cells were activated with antigen peptide as above, following with thoroughly washing, and incubation in presence of IL-2 for 2 days. […] Tcf1^+CD8^+, CD44^+CD62L^+CD8^+ and survival (stained with Annexin V-APC and PI) T cells were detected via flow cytometry.

OT-I CD8+ T cells [3] = experiment: In vitro central memory (Tcm) differentiation of OT-I CD8+ T cells activated with SIINFEKL peptide and IL-2 with metabolites; type: cell-based, mice; details: day 8; metabolite-supplemented medium (arginine 3 mM, 3-methylhistidine 3 mM, DHB 100 μM, sodium ferulate 100 μM)
Protocol: (§2) FIG. 2: a) OT-I CD8+ T cells were cultured with different metabolites in vitro as indicated, b,c) shown is the frequency of CD44^+CD62L^+ Tcm CD8+ T cells on day 8. d) OT-I CD8+ T cells were activated with α-CD3/α-CD28 antibodies in presence of metabolites as indicated and shown is the Tcm CD8+ T cells on day 7. Data represent the mean±s.e.m. (n=5).
Splenocytes from OT-I mice were obtained aseptically. The cells were cultured in 96-well plates (1×10^5 cells per well). For Tcm differentiation study, cells were activated with SIINFEKL peptide (4×10^−9M) in the presence of various metabolites (arginine: 3 mM; 3-methylhistidine: 3 mM; N-acetylneuraminate: 100 μM; disodium sebacate: 100 μM; DHB: 100 μM; pantothenate: 100 μM; γ-aminobutyric acid: 100 μM; glycerol: 100 μM; AICAR: 100 μM, sodium ferulate: 100 μM) for 3 days. Then cells were washed three times with T-cell medium and further cultured with IL-2 (10 ng ml^−1; PeproTech) in the presence of metabolites for 5 days. The cells were then washed twice and re-activated with SIINFEKL peptide (10 μM) for 2 h. The suspension cells were collected, blocked with CD16/32 antibody and stained with the fixable viability dye eFluor 450, FITC-CD44 rat anti-human/mouse and PE-CD62L monoclonal antibody. To test if the central memory CD8+ T cells differentiation is dependent on dendritic cells, CD8 T cells isolated from the spleen in OT-I mice were incubated in the 96-well plate, which was precoated with anti-hamster IgG antibody. […] (1 μg mL^−1) and IL-2 (100 U mL^−1) were added into each well in the presence of 3-methylhistidine (3 mM), DHB (100 μM), or sodium ferulate (100 μM) for 2 days. Then cells were washed for three times to remove α-CD3/α-CD28 antibodies and further incubated with metabolites and IL-2 (10 ng ml^−1) for 5 days. Thereafter, cells were collected for central memory CD8^+ T cells analysis. For CD8^+ T cells survival study, cells were activated with antigen peptide as above, following with thoroughly washing, and incubation in presence of IL-2 for 2 days. Metabolites were added during this incubation (arginine: 3 mM, 1 mM; 3-methylhistidine: 3 mM, 1 mM, 500 μM, 100 μM; N-acetylneuraminate: 100 μM; disodium sebacate: 100 μM; DHB: 100 μM, 50 μM, 20 μM; pantothenate: 100 μM; γ-aminobutyric acid: 100 μM; glycerol: 100 μM; AICAR: 100 μM). Then cells were further incubated in absence of both IL-2 and metabolites for 36 h to induce the apoptosis/dead. For Tcf1^+CD8^+ differentiation study, cells were activated with antigen peptide as above, followed by thoroughly washing, and incubation with metabolites in presence of IL-2 for 3 days. […] Tcf1^+CD8^+, CD44^+CD62L^+CD8^+ and survival (stained with Annexin V-APC and PI) T cells were detected via flow cytometry.

[4] = tested on: activated T cells, MC38, B16F10, and CT26 tumor cells; experiment: In vitro cell viability of DHB at various concentrations; type: cell-based; details: concentration below 1 mM
Protocol: (§3) FIG. 7: a-d) In vitro cell viability of DHB at various concentrations in activated T cells, MC38, B16F10, and CT26 tumor cells. e) BALB/c mice were s.c. inoculated with 1.5×10^5 CT26 colon carcinoma cells. DHB (2.4 mg per dose) or 3-methylhistidine (3 mg per dose) was i.p. injected 3 times every 4 days, 100 μg α-PD-1 was i.p. injected on days 11, 15, and 20. Shown is the average tumor growth. Data represent the mean±s.e.m. (n=4-5).

[5] = tested on: CT26 colon carcinoma cells; experiment: CT26 tumor model, orally administered metabolites plus α-PD-1; type: in vivo, BALB/c mice; details: oral gavage 3 times every 4 days (DHB 2.4 mg, 3-methylhistidine 3 mg per mouse) plus α-PD-1 i.p.
Protocol: FIG. 6: a) Therapeutic treatment regimen. BALB/c mice were s.c. inoculated with 1.5×10^5 CT26 colon carcinoma cells. The candidate agents were orally administrated 3 times every 4 days, 100 μg α-PD-1 was injected i.p. on days 10, 14, 18 and 22. b) Average tumor growth, c) individual tumor growth. Data represent the mean±s.e.m. (n=4-5).
Animals were cared for following the federal, state and local guidelines. All work conducted on animals was in accordance with and approved by the Institutional Animal Care and Use Committee (IACUC). Female (6-8 weeks old) BALB/c mice from Jackson Laboratory were inoculated with 1.5×10^5 CT26 cells per mouse on the right flank by s.c. injection. Tumor-bearing mice were randomly assigned to different treatment groups. For intratumoral injection study, the mice were injected with 3-methylhistidine (dose: 1 mg per mouse), sodium hippurate (dose: 1 mg per mouse), disodium sebacate (dose: 1 mg per mouse), sodium ferulate (dose: 1 mg per mouse), or DHB (dose: 0.5 mg per mouse) in 40 μL PBS buffer for every other day. The mice were i.p. injected with α-PD-1 antibody (100 μg per dose; clone RMP1-14, Bioxcell) on days 9, 12, 16 and 20 post tumor inoculation. […] The tumor size was measured, and the tumor volume was calculated as ½×(length×width^2). […]

[6] = tested on: CT26 colon carcinoma cells; experiment: CT26 tumor model, intratumoral metabolites plus α-PD-1; type: in vivo, BALB/c mice
Protocol: FIG. 5: a) Therapeutic treatment regimen. BALB/c mice were s.c. inoculated with 1.5×10^5 CT26 colon carcinoma cells. The candidate metabolites were injected intratumorally every other day, 100 μg α-PD-1 was i.p. injected on days 9, 12, 16 and 20. b) Average tumor growth, c) individual tumor growth, and d) overall Kaplan-Meier survival are shown. Data represent the mean±s.e.m. (n=5).
Animals were cared for following the federal, state and local guidelines. All work conducted on animals was in accordance with and approved by the Institutional Animal Care and Use Committee (IACUC). Female (6-8 weeks old) BALB/c mice from Jackson Laboratory were inoculated with 1.5×10^5 CT26 cells per mouse on the right flank by s.c. injection. Tumor-bearing mice were randomly assigned to different treatment groups. For intratumoral injection study, the mice were injected with 3-methylhistidine (dose: 1 mg per mouse), sodium hippurate (dose: 1 mg per mouse), disodium sebacate (dose: 1 mg per mouse), sodium ferulate (dose: 1 mg per mouse), or DHB (dose: 0.5 mg per mouse) in 40 μL PBS buffer for every other day. The mice were i.p. injected with α-PD-1 antibody (100 μg per dose; clone RMP1-14, Bioxcell) on days 9, 12, 16 and 20 post tumor inoculation. For oral administration study, the mice were injected with 3-methylhistidine (dose: 3 mg per mouse), sodium hippurate (dose: 3 mg per mouse), disodium sebacate (dose: 3 mg per mouse), sodium ferulate (dose: 3 mg per mouse), or DHB (dose: 2.4 mg per mouse) in PBS buffer for 3 times every 4 days. α-PD-1 was injected on days 10, 14, 18 and 22. The tumor size was measured, and the tumor volume was calculated as ½×(length×width^2). Tumor-bearing mice were euthanized when the tumor size reached 1.5 cm in any diameter or when the animals became moribund with severe weight loss (>20%) or tumor ulceration.

OT-I CD8+ T cells [7] = experiment: CD8+ T cell survival upon IL-2 withdrawal (Annexin V/PI); type: cell-based, mice; details: dependent on the dose of metabolites
Protocol: FIG. 4: a) OT-I CD8+ T cells were cultured with different metabolites in vitro as indicated, b,c) shown are the level of survival CD8+ T cells (Annexin V^−PI^−) as well as the representative flow cytometry plots on day 5.5. Data represent the mean±s.e.m. (n=5).
as §1

[8] = tested on: CT26 colon carcinoma cells; experiment: CT26 tumor model, metabolite monotherapy i.p. without α-PD-1; type: in vivo, BALB/c mice; details: monotherapy without α-PD-1 IgG; i.p. DHB 2.4 mg or 3-methylhistidine 3 mg per dose
Protocol: as §3

OT-I CD8+ T cells [9] = experiment: Tcm differentiation of isolated OT-I CD8+ T cells activated with α-CD3/α-CD28 in the absence of dendritic cells; type: cell-based, mice; details: α-CD3/α-CD28 activation; 3-methylhistidine 3 mM, DHB 100 μM; day 7
Protocol: as §2
Splenocytes from OT-I mice were obtained aseptically. The cells were cultured in 96-well plates (1×10^5 cells per well). For Tcm differentiation study, cells were activated with SIINFEKL peptide (4×10^−9M) in the presence of various metabolites (arginine: 3 mM; 3-methylhistidine: 3 mM; N-acetylneuraminate: 100 μM; disodium sebacate: 100 μM; DHB: 100 μM; pantothenate: 100 μM; γ-aminobutyric acid: 100 μM; glycerol: 100 μM; AICAR: 100 μM, sodium ferulate: 100 μM) for 3 days. Then cells were washed three times with T-cell medium and further cultured with IL-2 (10 ng ml^−1; PeproTech) in the presence of metabolites for 5 days. The cells were then washed twice and re-activated with SIINFEKL peptide (10 μM) for 2 h. The suspension cells were collected, blocked with CD16/32 antibody and stained with the fixable viability dye eFluor 450, FITC-CD44 rat anti-human/mouse and PE-CD62L monoclonal antibody. […] Tcf1^+CD8^+, CD44^+CD62L^+CD8^+ and survival (stained with Annexin V-APC and PI) T cells were detected via flow cytometry.

Compound	synergy with α-PD-1 against tumor growth in vivo [1]	frequency of Tcf1+CD8+ T cells (OT-I CD8+ T cells [2])	differentiation of CD44+CD62L+ central memory CD8+ T cells (OT-I CD8+ T cells [3])	cell toxicity [4]	efficacy of α-PD-1 treatment [5]	systemic antitumor efficacy of α-PD-1 treatment and CT26 tumor growth ([6]; intratumoral every other day (DHB 0.5 mg, 3-methylhistidine 1 mg per mouse) plus α-PD-1 i.p.)	tumor-free mice on day 70 ([6]; intratumoral metabolite plus α-PD-1 i.p.)	survival of activated CD8+ T cells (OT-I CD8+ T cells [7])	tumor growth in vivo [8]	induction of central memory CD8+ T cells in the absence of dendritic cells (OT-I CD8+ T cells [9])
COC(=O)[C@H](Cc1cncn1C)NC(=O)OC(C)(C)C [Prodrug #717, methyl Na-(tert-butoxycarbonyl)-Np-methyl-L-histidinate]	did not synergize									
O=C(O)c1ccc(O)c(O)c1 [DHB, 3,4-dihydroxybenzoate]		increased the frequency	significantly increased the differentiation	low cell toxicity	improved the efficacy of α-PD-1 treatment	improved the systemic antitumor efficacy of α-PD-1 treatment and slowed down the CT26 tumors growth	80%	significantly increased the survival	did not inhibit the tumor growth	can also induce central memory CD8^+ T cells
